Data on two compounds can be found in patent publication US11091522B2, “Peptidomimetic macrocycles and uses thereof” (priority 2018, dated 2021).

pIC50: −log10 of the molar value.

One series has as its system Caspase 3. The experiment in a line: Caspase 3 detection assay in SJSA-1 cells. Type of series: cell-based, human. The settings on record: SJSA-1 cells, 48 h, Caspase 3 activation over DMSO-treated cells. On the procedure: One the day of the assay, the media was replaced with fresh RPMI-11% FBS assay media. […] Control wells contained no cells, and received 200 μL of the assay media.
The solutions were serially diluted 33.3 times using sterile water to provide a range of 10× working stock solutions. […] 20 μL of the 10× working stock solutions were added to the appropriate wells. Row H of the plates had control wells. Wells H1-H3 received 20 μL of the assay media. […] Wells H10-H12 received media and had no cells. […] Nutlin-3a was diluted using the same dilution scheme as the peptides.
10 μL of the 10× stock solutions were added to the appropriate wells to achieve the final concentrations in a total volume of 100 μL. […] 48 h after incubation, 80 μL of the media was aspirated from each well. 100 μL of Caspase 3/7Glo assay reagent was added to each well. […] Data were analyzed as Caspase 3 activation over DMSO-treated cells.

The next series concerns SJSA-1 cells. The series is described as follows: Cell lysis by peptidomimetic macrocycles (LDH release). Type of series: cell-based, human. As for the experimental part: SJSA-1 cells were plated out one day in advance in clear, flat-bottom plates at a density of 7500 cells/well with 100 μL/well of growth media. Row H columns 10-12 were left empty to be treated with media alone. On the day of the assay, the media was exchanged with RPMI 1% FBS media to result in 90 μL of media per well. 10 mM stock solutions of the peptidomimetic macrocycles were prepared in 100% DMSO. The peptidomimetic macrocycles were diluted serially in 100% DMSO, and further diluted 20-fold in sterile water to prepare working stock solutions in 5% DMSO/water. The concentrations of the peptidomimetic macrocycles ranged from 500 μM to 62.5 μM.
10 μL of each compound solution was added to the 90 μL of SJSA-1 cells to yield final concentration of 50 μM to 6.25 μM in 0.5% DMSO-containing media. The negative control (non-lytic sample) was 0.5% of DMSO alone. The positive control (lytic) samples included 10 μM of Melittin and 1% Triton X-100. The cell plates were incubated for 1 h at 37° C. After incubation for 1 h, the morphology of the cells was examined by microscope. The plates were then centrifuged at 1200 rpm for 5 min at room temperature. 40 μL of the supernatant for each peptidomimetic macrocycle and control sample was transferred to clear assay plates. LDH release was measured using an LDH cytotoxicity assay kit.

The subject of a further series is MCF7 cells. Type of series: cell-based, human. The settings on record: Homo sapiens.
In series [1] the test system is SJSA1 osteosarcoma cancer cells. The experiment in a line: cells. The settings on record: Homo sapiens, SJSA-1, 120 h, read-out: IC50, cellular proliferation.
Series [2] is described as follows: Pharmacokinetics of AP1 and palbociclib in non-tumor-bearing nu/nu mice. Particulars: nu/nu, mouse, plasma, po, 75 mg/kg, nu/nu mice; for AUC(0-t): AUClast.
Setting [3] is: Alone, AP1 20 mg/kg or palbociclib 75 mg/kg alone.
Where [4] appears, read: Co-administered, AP1 20 mg/kg with palbociclib 75 mg/kg.

Regarding `CSCC[C@H](NC(=O)[C@H](C)NC(=O)[C@H](C)NC(=O)[C@]1(C)CCCC=CCCCCCC[C@@](C)(NC(=O)[C@H](Cc2ccccc2)NC(=O)[C@@H](NC(=O)[C@H](CC(C)C)NC(C)=O)[C@@H](C)O)C(=O)N[C@@H](C)C(=O)N[C@@H](Cc2ccc(O)cc2)C(=O)N[C@@H](Cc2c[nH]c3ccccc23)C(=O)N[C@@H](C)C(=O)N[C@@H](C)C(=O)N[C@@H](CC(C)C)C(=O)N1)C(=O)N[C@H](C)C(N)=O` (single isomer, unassigned) [compound 72], in the series on Caspase 3 (0.3 μM), the “caspase 0.3 μM” value is 1. Further, the “caspase 3 μM” value in the series on Caspase 3 (3 μM) is given as 1. Moreover, the “caspase 10 μM” value in the series with Caspase 3 (10 μM) was found to be 4. The “caspase 30 μM” value in the series with Caspase 3 (30 μM) came out at 10. The “6.25 μM % Lysed cells (1 h LDH)” value in the series with SJSA-1 cells (6.25 μM) was determined as 2%. For the same compound, the “25 μM % Lysed cells (1 h LDH)” value in the series with SJSA-1 cells (25 μM) is given as 0%. For the same compound, the “50 μM % Lysed cells (1 h LDH)” value in the series on SJSA-1 cells (50 μM) is given as 3%.
For `CC(=O)c1c(C)c2cnc(Nc3ccc(N4CCNCC4)cn3)nc2n(C2CCCC2)c1=O` [palbociclib], in the series on MCF7 cells, the inhibition (as a rule, the change of the read-out against control, counted positive when it falls) at 0.0003 µM is -10%; the inhibition at 0.001 µM was -19%; the inhibition at 0.003 µM is -9.7%; the inhibition at 0.01 µM came to 6.6%. In the series on MCF7 cells, the inhibition at 0.03 µM turned out to be 21.1%, the inhibition at 0.1 µM came to 40.9%, the inhibition at 0.3 µM turned out to be 62.9% and the inhibition at 1 µM is 78.9%. In the series with MCF7 cells, the inhibition at 3 µM was 84%, the inhibition at 10 µM was determined as 84.3% and the inhibition at 30 µM turned out to be 100%. In series [1], the pIC50 was 7.22. In series [2] (setting [3]), the AUC(0-t) (as a rule, the area under the concentration-time curve up to a stated or last time point) came to 37000 ng·h/mL and the concentration peaked (Cmax) at 2900 ng/mL. For the same compound, in series [2] (setting [4]), the AUC(0-t) worked out at 29000 ng·h/mL and the Cmax (commonly the peak of the concentration-time curve) is 2600 ng/mL.
